Reference: patent US11564975B2, “Use of GHRP-6 as late cardioprotective and cardiac restoration medicament” (Centro de Ingeniería Genética y Biotecnología, priority 2018, dated 2023)
Several values for one entry are separate records, joined by “and”; a condition that tells them apart may be missing. Equal entries are not always repeated. Entries after “also recorded” stand apart in the source; their conditions may differ.

Legend:
[1] = system: AMI with ST segment elevation; experiment: First cohort: patients with AMI with ST segment elevation, GHRP-6 immediately after angioplasty; type: in vivo, human
Procedure: First cohort. Comprising 19 patients over 30 years old, of both sexes, with a diagnosis of AMI with ST segment elevation, all with occlusion of the anterior descending artery, first episode, who arrived at a cardiology department before 12 hours of implantation of the precordial pain. The average door-ball time was 6 hours. All patients received primary percutaneous transluminal angioplasty, and immediately after the culprit artery flow was restored they received treatment with GHRP-6. In some patients, the treatment was performed by intra-coronary flushing, after the flow was restored. Residual lesions occupied less than 25% of the initial occlusion area, so it was considered as a TIMI 3, according to the Coronary Risk Score known as TIMI. In other cases, the first administration was performed by a central-venous route, just at the time of reperfusion, in the hemodynamic room. GHRP-6 was administered at a dose of 100 μg/kg of body weight, twice a day, for 7 days, time spent in the coronary intensive care hospital room. […]

[2] = system: Grade IV heart failure; experiment: Compassionate treatment of patients with Grade IV heart failure awaiting heart transplantation; type: in vivo, human; conditions: for Cardiac output (L/m) / LVEF % / Oxygen consumption / Systolic volume: individual patients
From the text: This is a cohort of 7 patients, who received the compassionate treatment with GHRP-6, under informed consent. All patients were in advanced heart failure, evaluated as functional class grade IV, according to the scale of the New York Heart Association. These patients were hospitalized in specialized cardiology services of two hospitals, and the ischemic heart disease, the idiopathic dilated cardiomyopathy, the heart valve disease, and the postpartum dilated cardiomyopathy were considered as the underlying condition for heart failure. […] They had minimal effort dyspnea, inability to adequately fulfill the 6 minutes' walk test, and instability in fluid balance and renal function, despite the diet control and the treatment with diuretics, the restriction of salt and the monitoring body weight.
All patients received between 50 and 200 μg of GHRP-6/kg body weight, two or three times a day, according to medical criteria, by intravenous route. All treatments were performed while the patients were awaiting for heart transplantation. The treatment period with GHRP-6 was between 25 days and 30 days per cycle.
A cycle of treatment with GHRP-6 was performed every three months. The maximum was three cycles. All patients were maintained with previous medical treatments, based on digital, diuretics, renin-angiotensin-aldosterone axis inhibitors (neurohormones) and pressor amines when required.

[3] = system: AMI with a ST Segment elevation; experiment: AMI in pigs, one hour circumflex artery clamping followed by reperfusion; type: in vivo, female pigs of the Yorkshire breed; conditions: for Infarction Area (%): day 10
Procedure: (§1) The objective of the study was to evaluate, and to compare, the therapeutic impact of the late administration of GHRP-6 on functional parameters of the left ventricle, regarding the effect of the peptide acutely administered. Another objective was to assess the effect of late treatment in a group of animals in which the reperfusion was not performed.
(§2) The implementation of the AMI was performed in female pigs of the Yorkshire breed, with body weight of 22-27 kg. The anesthesia was induced with propofol, midazolam and pancuronium, by intravenous route. Under general anesthesia, obtained with a mixture of isofluorane/oxygen and nitrous oxide the ischemia was provoked. It was induced by a thoracotomy between the fifth and sixth intercostal spaces, until reaching the left circumflex artery, which was occluded by a 30 mm arterial clamping for one hour. Immediately, the record of the electrocardiogram and the heart rate was taken, every 20 seconds. At the end of 60 minutes of occlusion, the clamping was released, and so began the reperfusion phase, to complete the 10 days after ischemia. For the experimental group without reperfusion, that simulates the state called as non-reflux, a permanent ligation of the circumflex artery, with surgical thread, was performed. Both procedures, clamping and permanent ligation, induce an AMI with a ST Segment elevation. The recording of heart rate and electrocardiogram continued until the superficial suture of the thorax. The animals were sacrificed, by exsanguination, on the tenth day after the ischemia episode was induced. Under an anesthetic overdose, the determination of the area of the AMI was made, by means of the calculation of the area at risk with Evans blue.
(§3) For the echocardiographic evaluation, the pigs were previously sedated with a mixture of propofol/midazolam. A Kontron ultrasound system, Sigma 1 AC Cardio model, equipped with 3.5-7.5 MHz mechanical-cardiac sector transducers was used.
(§4) The parameters evaluated were the following: • Left Ventricle Ejection Fraction (LVEF), estimated by the Teich method. • Left Ventricle Tele-Systolic and Tele-diastolic Pressures. • Infarction Area, estimated on the area at risk (%).
(§5) Seven animals per group were used. In all groups, the animals received treatment every 12 hours, for 10 days after ischemia. The administrations of GHRP-6 or placebo were performed through a central catheter. In the case of the groups that received the peptide, it was diluted in 10 ml of physiological saline. The essence of the study was to evaluate the influence of the time of initiation of treatment on functional parameters and size of the ventricular not viable territory.

[4] = system: AMI with elevated ST segment; experiment: Second cohort: AMI patients with low cardiac output syndrome / cardiogenic shock, late treatment with GHRP-6; type: in vivo, human; conditions: for LVEF: individual patients, late treatment, echocardiography at 90 days
Procedure: Second cohort. Comprising 13 patients over 30 years old, of both sexes, with a diagnosis of AMI with elevated ST segment, who received percutaneous transluminal angioplasty before 12 hours of implantation of precordial pain. All these patients evolved in an unfavorable way, and with uncertain prognosis between 24 and 96 hours after a successful endoluminal reperfusion, according to the imaging criteria all were considered as TIMI grade 3.
This led to the decision of establishing an alternative treatment with GHRP-6, to try to reduce dyskinesia of the ventricular musculature, to attenuate the process of presumed stunning, to dampen hypoxia, and to rescue from death a territory of ischemic ventricular mass. The patients who implanted a reinfarction received rescue angioplasty. One of these patients died during the procedure. None of the patients met criteria for the coronary revascularization practice. In these cases, the first administration of the peptide was carried out at least after 48 hours of torpid evolution after a TIMI 3. During the treatment time, the GHRP-6 was administered intravenously, every 12 hours.

[5] = system: AMI with a ST Segment elevation; experiment: AMI in pigs without reperfusion (non-reflux), permanent ligation of the circumflex artery; type: in vivo, female pigs of the Yorkshire breed
Procedure: as §1, §2, §3, §4, §5

[6] = 30 days after PTA, 100 μg/kg twice a day for 7 days
[7] = 90 days after PTA, 100 μg/kg twice a day for 7 days
[8] = start of treatment, minutes after the PTA (baseline)
[9] = after treatment, 50-200 μg/kg two or three times a day intravenously
[10] = Group 2: 400 μg/kg every 12 h for 10 days, onset immediately at the beginning of reperfusion
[11] = Group 3: 400 μg/kg every 12 h, onset 72 hours after the start of reperfusion
[12] = Group 4: 400 μg/kg every 12 h, onset 5 days after the start of reperfusion
[13] = Group 5: no reperfusion, 400 μg/kg every 12 h, onset one hour after the artery was permanently clamped

## growth hormone releasing peptide-6 [GHRP-6]
[1]; [6]
  LVEF %: 51 ± 8.6%
  SPWT (mm): 11.6 ± 0.7 mm
  SSF %: 35 ± 6.5%
  SST (mm): 10.3 ± 1.6 mm
  Telediastolic volumen: 87 ± 11 mL
  Telesystolic volume: 65 ± 23 mL
[1]; [7]
  LVEF %: 57 ± 6.6%
  SPWT (mm): 11.3 ± 1.8 mm
  SSF %: 42 ± 9.6%
  SST (mm): 10.7 ± 1 mm
  Telediastolic volumen: 111 ± 16 mL
  Telesystolic volume: 49 ± 8 mL
[1]; Cohort 1, acute treatment, 90 days after treatment
  LVEF %. Mean ± SD: 57.0 ± 6.61%
[1]; first cohort, GHRP-6 after successful angioplasty (TIMI 3)
  clinical evolution of the patients: favorable evolution, without further important complications; also recorded: progressive improvement over time
[1]; [8]
  LVEF %: 38 ± 5.9%
  SSF %: 27 ± 2.6%
  Telediastolic volumen: 81 ± 14 mL
  Telesystolic volume: 77 ± 12 mL
[1]; start of treatment, minutes after the PTA (baseline), echocardiography
  SPWT (mm): 10.1 ± 2 mm
[2]; Grade IV heart failure patients in the transplant pool
  overall response to treatment: restore cardiac, hemodynamic, ventilatory and clinical constants
[2]; [9]
  Cardiac output (L/m): 4.3 L/m and 3.8 L/m and 2.9 L/m and 3.2 L/m (2×) and 3.08 L/m and 2.89 L/m
  LVEF %: 28% and 30% and 29% and 23% and 25% and 31% and 26%
  Oxygen consumption: 7.7 mL/min/kg and 7 mL/min/kg and 6.4 mL/min/kg and 7.2 mL/min/kg and 7.6 mL/min/kg and 6.6 mL/min/kg and 9.5 mL/min/kg
[2]; after treatment, 50-200 μg/kg two or three times a day intravenously, in mL (unit assumed)
  Systolic volume: 50 and 54 and 60 and 56 and 49 and 47 and 51
[2]; before treatment
  Cardiac output (L/m): 3.2 L/m and 2.7 L/m and 1.89 L/m and 2.17 L/m and 2.41 L/m and 2.1 L/m and 1.98 L/m
  LVEF %: 20% (2×) and 19% and 21% (2×) and 22% and 18%
  Oxygen consumption: 4.12 mL/min/kg and 3.91 mL/min/kg and 3.05 mL/min/kg and 4.1 mL/min/kg and 3.87 mL/min/kg and 4.2 mL/min/kg and 3.63 mL/min/kg
  Systolic volume: 29 (2×) and 30 and 31 and 35 and 25 and 27
[3]; [10]
  LV telediastolic pressure (mmHg): 4.6 ± 1.1 mmHg
  LV telesystolic pressure (mmHg): 80 ± 2.2 mmHg
  LVEF %: 80 ± 2.5%
  Infarction Area (%): 31.6 ± 5.2%
[3]; [11]
  LV telediastolic pressure (mmHg): 4.4 ± 1.6 mmHg
  LV telesystolic pressure (mmHg): 81 ± 3.0 mmHg
  LVEF %: 77 ± 4.1%
  Infarction Area (%): 35.4 ± 6.4%
[3]; [12]
  LV telediastolic pressure (mmHg): 5.2 ± 0.8 mmHg
  LV telesystolic pressure (mmHg): 77 ± 3.1 mmHg
  LVEF %: 60 ± 6.6%
  Infarction Area (%): 37.0 ± 4.3%
[3]; all groups that received GHRP-6, regardless of when treatment started
  diastolic pressure compared to the placebo group: significant reduction
[3]; medicated from 5 days after the ischemic event, versus placebo
  LVEF rescued: 22%
[3]; start of treatment on the fifth day
  decline of LVEF compared to baseline physiological conditions: 21%
[3]; statistical comparison of Groups 2 and 3
  infarct size effect: treatment in parallel to reperfusion versus started 72 hours later: no significant statistically differences
[3]; treatment initiated on the 5th day after ischemia
  ventricular territory (area at risk) rescued from death: 8%
[3]; treatment started 72 hours after reperfusion
  reduction of the size of myocardial infarction in comparison to placebo: ~13%
[4]; Cohort 2, late treatment, 90 days after treatment
  LVEF %. Mean ± SD: 50.8 ± 5.34%
[4]; after start of peptide treatment
  interval to suspension of vasopressor amines: ~96 h
[4]; 100 μg/kg every 12 hours
  LVEF: LVEF of 63%; also recorded: LVEF of 48%; also recorded: LVEF of 50%; also recorded: LVEF of 52%; also recorded: LVEF of 56%; also recorded: LVEF of 45%
[4]; 200 μg/kg every 12 hours
  LVEF: LVEF of 47%; also recorded: LVEF of 51%; also recorded: LVEF of 46%
[4]; patients evaluated, after start of peptide treatment
  patients in whom suspension of vasopressor amines was achieved: 8 out of 10
[4]; second cohort
  surviving patients of the 13 critical patients: 12
[5]; [13]
  LV telediastolic pressure (mmHg): 5.1 ± 1.9 mmHg
  LV telesystolic pressure (mmHg): 80 ± 2.6 mmHg
  LVEF %: 72 ± 5.5%
[5]; Group 5: no reperfusion, 400 μg/kg every 12 h, onset one hour after the artery was permanently clamped, day 10
  Infarction Area (%): 36.1 ± 2.8%
[5]; no reperfusion
  reduction of the area of ventricular death: 12%
[5]; non-reflux group, without reperfusion
  LVEF difference with baseline conditions: 9%
